Assay results as given in ChEMBL document CHEMBL3875177, “Design, synthesis and biological evaluation of [1,2,3]triazolo[4,5-d]pyrimidine derivatives possessing a hydrazone moiety as antiproliferative agents” (Eur J Med Chem, 2016).
Active and inactive are the calls of the source. The calls are words filed in the database; no cut-off is given here.

Legend:
[1] = Antiproliferative activity against human EC109 cells after 72 hrs by MTT assay; assay type: functional, cell-based; settings: ECa-109, 72 h
[2] = (§1) Antiproliferative activity against human MGC803 cells after 72 hrs by MTT assay; assay type: functional, cell-based; settings: MGC-803, 72 h
[3] = Antiproliferative activity against human MCF7 cells after 72 hrs by MTT assay; assay type: functional, cell-based; settings: MCF7, 72 h
[4] = Antiproliferative activity against human GES-1 cells after 72 hrs by MTT assay; assay type: cell-based; settings: GES1, 72 h
[5] = system: MGC-803; assay: Induction of apoptosis in human MGC803 cells at 4 uM after 24 hrs by Annexin-V FITC/propidium iodide staining based flow cytometry (reference value: 1.8%); assay type: functional
[6] = system: MGC-803; assay: Induction of apoptosis in human MGC803 cells after 24 hrs by Annexin-V FITC/propidium iodide staining based flow cytometry; assay type: functional, cell-based
[7] = target: Lysine-specific histone demethylase 1A (Homo sapiens) (UniProt O60341); assay: Inhibition of LSD1 (unknown origin) at 10 uM relative to control
[8] = system: MGC-803; assay: as §1; assay type: functional, cell-based
[9] = system: MGC-803; assay: Induction of apoptosis in human MGC803 cells at 2 uM after 24 hrs by Annexin-V FITC/propidium iodide staining based flow cytometry (reference value: 1.8%); assay type: functional
[10] = system: MGC-803; assay: Induction of apoptosis in human MGC803 cells assessed as decrease in Mcl1 protein expression at 1 to 4 uM after 24 hrs by Western blot method; assay type: functional, cell-based
[11] = system: MGC-803; assay: Induction of mitochondrial membrane potential loss in human MGC803 cells after 24 hrs by JC-1 staining based flow cytometry; assay type: functional, cell-based
[12] = system: MGC-803; assay: Induction of apoptosis in human MGC803 cells assessed as formation of apoptotic bodies at 1 to 4 uM after 24 hrs by Hoechst 33258 staining based fluorescence microscopic method; assay type: functional, cell-based
[13] = system: MGC-803; assay: Induction of apoptosis in human MGC803 cells assessed as increase in PUMA protein expression after 24 hrs by Western blot method; assay type: functional, cell-based
[14] = Inhibition of colony formation in human MGC803 cells assessed as reduction in foci formation at 0.8 uM after 10 days by crystal violet staining based assay relative to control; assay type: functional; settings: MGC-803, 240 h
[15] = system: MGC-803; assay: Induction of apoptosis in human MGC803 cells assessed as chromatin shrinkage at 1 to 4 uM after 24 hrs by Hoechst 33258 staining based fluorescence microscopic method; assay type: functional, cell-based
[16] = system: MGC-803; assay: Induction of apoptosis in human MGC803 cells assessed as increase in caspase-3 protein expression at 1 to 4 uM after 24 hrs by Western blot method; assay type: functional, cell-based
[17] = system: MGC-803; assay: Induction of apoptosis in human MGC803 cells at 1 uM after 24 hrs by Annexin-V FITC/propidium iodide staining based flow cytometry (reference value: 1.8%); assay type: functional
[18] = system: MGC-803; assay: Induction of apoptosis in human MGC803 cells assessed as cell rounding at 1 to 4 uM after 24 hrs by Hoechst 33258 staining based fluorescence microscopic method; assay type: functional
[19] = system: MGC-803; assay: Induction of apoptosis in human MGC803 cells assessed as increase in Bak protein expression after 24 hrs by Western blot method; assay type: functional, cell-based
[20] = system: MGC-803; assay: Induction of apoptosis in human MGC803 cells assessed as increase in Bax protein expression after 24 hrs by Western blot method; assay type: functional, cell-based
[21] = system: MGC-803; assay: Induction of apoptosis in human MGC803 cells assessed as decrease in Bcl2 protein expression at 1 to 4 uM after 24 hrs by Western blot method; assay type: functional, cell-based
[22] = system: MGC-803; assay: Induction of mitochondrial membrane potential loss in human MGC803 cells at 4 uM after 24 hrs by JC-1 staining based flow cytometry (reference value: 49.8%); assay type: functional
[23] = system: MGC-803; assay: Induction of apoptosis in human MGC803 cells assessed as increase in caspase-9 protein expression at 1 to 4 uM after 24 hrs by Western blot method; assay type: functional, cell-based

SMILES	IC50 [1] [µM]	IC50 [2] [µM]	IC50 [3] [µM]	further results
CCCSc1nc(N/N=C(\C)c2ccccc2O)c2nnn(Cc3ccc(F)cc3)c2n1	21.9	11	> 64	
CCCSc1nc(N/N=C/c2ccccc2Cl)c2nnn(Cc3ccccc3)c2n1	6.18	10.9	13.8	
C#CCSc1nc(N/N=C/c2ccc(N(C)C)cc2)c2nnn(Cc3ccccc3)c2n1	31.2	7.62	> 64	
CCCSc1nc(N/N=C/c2ccc([N+](=O)[O-])cc2)c2nnn(Cc3ccccc3)c2n1	6.64	10.1	11	
CCCSc1nc(N/N=C/c2c(O)ccc3ccccc23)c2nnn(Cc3ccccc3)c2n1	9.29	3.71	6.4	IC50 [4]: 13.1 µM
C#CCSc1nc(N/N=C(\C)c2ccccc2O)c2nnn(Cc3ccccc3)c2n1	5.25	3.82	11.2	
CCCSc1nc(N/N=C(\C)c2ccc(O)cc2)c2nnn(Cc3ccccc3)c2n1	32.5	16.7	21.6	
O=c1[nH]cc(F)c(=O)[nH]1 [FLUOROURACIL]	10.6	7.35	9.25	
CCCSc1nc(N/N=C/c2ccc3ccccc3c2)c2nnn(Cc3ccccc3)c2n1	> 64	> 64	> 64	
CCCSc1nc(N/N=C(\C)c2ccccc2O)c2nnn(Cc3ccccc3Cl)c2n1	> 64	35	> 64	
CCCSc1nc(N/N=C(\C)c2ccccc2O)c2nnn(CCO)c2n1	60.3	47.1	> 64	
CCCSc1nc(N/N=C/c2ccc(Cl)cc2)c2nnn(Cc3ccccc3)c2n1	> 64	> 64	> 64	
CCCSc1nc(N/N=C(\C)c2ccc(Br)cc2)c2nnn(Cc3ccccc3)c2n1	4.67	6.02	13	
COc1cc(/C=N/Nc2nc(SCc3ccccc3)nc3c2nnn3Cc2ccccc2)cc(OC)c1OC	4.4	1.32	13.5	IC50 [4]: 48.3 µM
CCCSc1nc(N/N=C(\C)c2ccccc2O)c2nnn(Cc3cccc(Cl)c3)c2n1	13	6.5	39.9	
CCCSc1nc(N/N=C(\C)c2ccccc2O)c2nnn(Cc3ccc(Cl)cc3)c2n1	11.2	7.1	42.6	
CCCSc1nc(N/N=C/c2c[nH]c3ccccc23)c2nnn(Cc3ccccc3)c2n1	8.69	7.41	9.01	
CCCSc1nc(N/N=C/c2cccc(Cl)c2)c2nnn(Cc3ccccc3)c2n1	> 64	> 64	> 64	

SMILES	IC50 [1] [µM]	IC50 [2] [µM]	IC50 [3] [µM]	further results
CCCSc1nc(N/N=C/c2cc(OC)c(OC)c(OC)c2)c2nnn(Cc3ccccc3)c2n1	4.06	9.41	> 64	IC50 [4]: > 64 µM
CCCSc1nc(N/N=C(\C)c2ccccc2)c2nnn(Cc3ccccc3)c2n1	32.2	25.4	32.1	
CCCSc1nc(N/N=C/c2ccc(N(C)C)cc2)c2nnn(Cc3ccccc3)c2n1	20	13.1	12.2	
CCCSc1nc(N/N=C(\C)c2ccccc2O)c2nnn(Cc3ccco3)c2n1	5.76	4.76	29	IC50 [4]: 33.3 µM
CCCSc1nc(N/N=C(\C)c2ccccc2O)c2nnn(Cc3ccccc3)c2n1	11.1	2.31	11	IC50 [4]: 32.3 µM
C#CCSc1nc(N/N=C/c2cc(OC)c(OC)c(OC)c2)c2nnn(Cc3ccccc3)c2n1	6.54	4.67	17	IC50 [4]: 25.6 µM
CCCSc1nc(N/N=C/c2ccc(C)cc2)c2nnn(Cc3ccccc3)c2n1	> 64	> 64	> 64	
CCCSc1nc(N/N=C/c2ccccc2)c2nnn(Cc3ccccc3)c2n1	> 64	> 64	> 64	
CCCSc1nc(N/N=C/c2cccs2)c2nnn(Cc3ccccc3)c2n1	> 64	> 64	> 64	
CCCSc1nc(N/N=C(\C)c2ccccc2O)c2nnn(Cc3ccc(O)cc3)c2n1	15.9	7.68	9.52	
C/C(=N\Nc1nc(SCc2ccccc2)nc2c1nnn2Cc1ccccc1)c1ccccc1O	1.77	0.85	0.95	Activity [5]: <=53.9%; Activity [6]: Dose-dependent effect; inhibition [7]: 26.8%; Activity [8]: Dose-dependent effect; Activity [9]: <=24.8%; Activity [10]: Active; Activity [11]: Dose-dependent effect; Activity [12]: Active; IC50 [4]: 56.2 µM; Activity [13]: Dose-dependent effect; inhibition at 0.8 µM [14]: 83%; Activity [15]: Active; Activity [16]: Active; Activity [17]: <=8.7%; Activity [18]: Active; Activity [19]: Dose-dependent effect; Activity [20]: Dose-dependent effect; Activity [21]: Active; Activity [22]: <=90.4%; Activity [23]: Active
CCCSc1nc(N/N=C(\C)c2ccc(OC)cc2)c2nnn(Cc3ccccc3)c2n1	> 64	44.3	> 64	
CCCSc1nc(N/N=C/c2ccccc2F)c2nnn(Cc3ccccc3)c2n1	> 64	> 64	> 64	
CCCSc1nc(N/N=C(\C)c2ccccc2O)c2nnn(Cc3ccc(Br)cc3)c2n1	36.1	11.3	15.6	
CCCSc1nc(N/N=C/c2ccc(Br)cc2)c2nnn(Cc3ccccc3)c2n1	> 64	34.9	> 64	
CCCSc1nc(N/N=C/c2cccnc2)c2nnn(Cc3ccccc3)c2n1	> 64	38.1	58.7	
CCCSc1nc(N/N=C(\C)c2ccccc2O)c2nnn(CCc3cccs3)c2n1	30.9	16.4	> 64	
C#CCSc1nc(N/N=C/c2c(O)ccc3ccccc23)c2nnn(Cc3ccccc3)c2n1	6.52	10.5	8.97	
